Results from US11485700B2, “Synthesis of (+)-cannabinoids and their therapeutic effects” (SYMRISE AG, priority 2018, dated 2022).

How the values were obtained:
[1] = test system: LPS-treated human monocytes; test: LPS-induced inflammatory parameters in human monocytes; assay type: cell-based; details: LPS 10 ng/ml, 24 h
Method: (§1) Cell cultures: Human primary monocytes were extracted from the whole blood of medically healthy volunteers, who provided written informed consent at the local blood bank (University Hospital of Freiburg, Germany), following a standardized protocol (gradient preparation, Lymphocytes separation medium, PAN Biotech, P04-60125, Aidenbach, Germany) using completely endotoxin-free cultivation. Using 50 ml tubes, 25 ml Pancoll was loaded with 25 ml of blood (buffy coats). The gradient was established by centrifugation at 1800 rpm, 20° C. for 40 min with slow acceleration and deceleration. Peripheral blood mononuclear cells in the interphase were carefully removed and re-suspended in 50 ml pre-warmed phosphate-buffered saline (PBS) (Pan Biotech, P04-36500), followed by centrifugation for 10 min at 1600 rpm and 20° C. The supernatant was discarded and the pellet washed in 50 ml PBS and centrifuged as described above. The pellet was then re-suspended in 50 ml RPMI-1640 low-endotoxin medium supplemented with 10% human serum (Hexcell, Berlin, Germany, SP2080). After counting the number of cells in a particle counter (Euro Diagnostics, Krefeld, Germany), cells were seeded in 24-well plates for enzyme linked immunosorbent assay (ELISA) (2.2 mio. cells/well) or 96-well plates at a density of 2×10^4 cells/well for cell viability testing, and incubated at 37° C. with 5% CO2. The medium and the non-adherent cells (lymphocytes) were removed and fresh RPMI-1640 medium containing 1% human serum added. Enriched monocytes were then ready to be used for the experiments. Primary human fibroblasts and HaCat keratinocytes were obtained from the Uniklinik Freiburg. All cells were maintained in supplemented DMEM (Invitrogen, Life-Technologies, Darmstadt, Germany) medium containing 10% FBS (Bio&Sell, Feucht, Germany) and 1% antibiotics penicillin/streptomycin (from Invitrogen, DMEM complete medium) at 37° C. in a humidified atmosphere of 5% CO2.
Measurement of cytokines and PGE2 in primary human monocytes: Cells were incubated with LPS (Sigma-Aldrich, Taufkirchen, Germany, 10 ng/ml) for 24 h. The cannabinoids (5 doses) were added 30 min before LPS treatment. After 24 h, supernatants were removed, centrifuged and investigated for IL-1beta, IL-8, IL-6, TNFalpha, MMP9, isoprostane, and PGE2 concentrations in EIAs (PGE2 and isoprostane, from Cayman/Biomol, Hamburg, Germany) or ELISAs (IL-1beta, Hiss, Freiburg, Germany; TNFalpha, IL-6 and IL-8, ImmunoTools, Frysoithe, Germany, MMP9, Biotechne, Wiesbaden, Germany) using manufacturer's protocol. The respective extinction was determined using a 96-well plate reader (Berthold, Offenburg, Germany). Each dose was analyzed 4 times in two buffy coats from 2 different donors (2 buffy coats used from 2 different healthy blood donors with final n=4 values).

CB1 receptor = CB1 receptor (Homo sapiens (Human), UniProt P21554); test: In vitro binding to CB1 receptor, [3H]-CP55940 radioligand displacement
Method: (§2) Compounds with an expected profile as CB1 and/or CB2 receptor ligands were evaluated by competition studies that allow determining the affinity of these compounds (Ki values) for both receptors against a classical cannabinoid ligand. The competition studies were conducted with membranes transfected with either CB1 or CB2 receptors. For stock solutions the compounds were dissolved at concentrations of 50 and 100 mM and stored at −20° C.
(§3) 96-well plates and the tubes necessary for the experiment were siliconized with Sigmacote (Sigma). Membranes were resuspended in the corresponding buffer and were incubated with the radioligand and each compound for 90 min at 30° C. Non-specific binding was determined with 10 μM WIN55212-2 and 100% binding of the radioligand to the membrane was determined by its incubation with membrane and without any compound. Filtration was performed by a Harvester®filtermate (Perkin-Elmer) with Filtermat A GF/C filters pretreated with polyethylenimine 0.05%. After filtering, the filter was washed nine times with binding buffer, dried and a melt-on scintillation sheet (Meltilex™ A, Perkin Elmer) was melted onto it. Then, radioactivity was quantified by a liquid scintillation spectrophotometer (Wallac MicroBeta Trilux, Perkin-Elmer).
(§4) Radioligand displacement assays were used to evaluate the affinity of the new compounds using membranes from cells (HEK293EBNA) transfected with the CB1 or the CB2 receptors and [^3H]-CP55940 as radioligand. The evaluation of the compounds was conducted in two phases. The first phase consisted in a simple screening with a unique and high concentration of each compound (40 μM). The data was collected from at least three experiments performed in triplicate. […] This consisted of a competition study with [^3H]CP55940 (0.10 nM for CB1 and 0.15 nM for CB2) and different concentrations of the selected compounds (10^−4-10^−11M). The data was analyzed, by using GraphPad Prism® version 5.01 (GraphPad Software Inc., San Diego, Calif., USA), for the calculation of Ki values expressed as mean±SEM of at least three experiments performed in triplicate for each point.

CB2 receptor = CB2 receptor (Homo sapiens (Human), UniProt P34972); test: In vitro binding to CB2 receptor, [3H]-CP55940 radioligand displacement
Method: as §2, §3, §4

[2] = test system: IL-1-treated human dermal fibroblasts; test: IL-1-induced inflammatory parameters in human dermal fibroblasts; assay type: cell-based; details: 24 h
[3] = test system: PolyIC-treated human keratinocytes (HaCat); test: Poly I:C-induced proteases in human HaCat keratinocytes; assay type: cell-based; details: Poly I:C 10 μg/ml, 24 h; maximal effect, doses up to 25 μM
Method: as §1
Determination of MMPs and TIMPs in keratinocytes: Keratinocytes (HaCat) were cultivated as described above. Cells were seeded in 24-well plates incubated with Poly I:C (InvivoGen, San Diego, Calif.; USA, 10 μg/ml) in absence and presence of the cannabinoids (5 doses, n=3) for 24 h. Unstimulated cells served as a negative control. 24 h after cell stimulation, supernatants were removed, centrifuged and investigated for MMP1, MMP9 and TIMP1 concentrations by ELISAs according to the manufacturer's protocol (from Biotechne, Wiesbaden, Germany). The respective extinction was determined using a 96-well plate reader (Berthold, Offenburg, Germany).

[4] = maximal effect, doses up to 25 μM

C=C(C)[C@H]1CCC(C)=C[C@@H]1c1c(O)cc(CCCCC)c(C(=O)OC)c1O [(+)-CBD-ME, (+)-Cannabidiol methylester]
doses increasing LPS-induced IL-8 [1]: 5 to 25 µM | doses increasing LPS-mediated IL-1beta [1]: 25 µM | inhibition of LPS-induced IL-6 [1, 4]: around 20% | inhibition of LPS-stimulated TNFalpha release [1, 4]: around 20% | Ki (CB1 receptor): 345 nM | CB1/CB2 selectivity (CB1 receptor; ratio of CB1-Ki to CB2-Ki): 12.3 | Ki (CB2 receptor): 28 nM | dose that seems to be toxic in fibroblasts [2]: 25 µM | inhibition of Poly I:C-stimulated TIMP1 [3]: 40%
